# Data from patent publication US20250115865A1, “MAMMALIAN SPERM PREPARATION METHOD, ARTIFICIAL INSEMINATION METHOD, IN-VITRO FERTILIZATION METHOD, AND MEDIUM” (Hiroshima University, priority 2022, published 2025).
# Experiments:
# pig sperm = test: Pig artificial insemination with treated semen, sex of offspring; format: in vivo; settings: semen treated in modified HTF medium pH 7.8, R848 3 nM, 60 minutes, 37° C.
# Experimental: Pig semen diluted to 5 billion/100 mL with Hiro Swine B solution was centrifuged (500 G, 5 minutes, room temperature), and then the supernatant was discarded. The pig sperm were suspended in the same amount of modified HTF medium (pH 7.8, supplemented with R848 (3 nM)), and then cultured in a thermostat (60 minutes, 37° C.). Thereafter, centrifugation (500 G, 5 minutes, room temperature) was carried out, and the supernatant was discarded. Subsequently, the sperm were suspended in a diluent for artificial insemination, and then subjected to artificial insemination.
# mouse sperm [1] = test: Mouse in vitro fertilization with treated sperm, sex of blastocyst embryos by real-time PCR; format: cell-based; settings: sperm treated with R848 3 nM
# Experimental: Sperm were collected from the cauda epididymis of 12-week-old mature male mice. The mouse sperm were cultured in modified HTF medium (Glu medium, pH 7.8, supplemented with R848 (3 nM)) (60 minutes, 37° C.). In vitro fertilization was performed using sperm cultured in the same manner as in Experiment 7. Five days later, sperm that reached blastocyst embryos were collected, and the ratio between X-sperm and Y-sperm was calculated by real-time PCR.
# mouse sperm [2] = test: Mouse artificial insemination with treated sperm, sex of blastocyst embryos; format: in vivo; settings: sperm treated with R848 3 nM, Glu medium pH 7.8, 60 minutes, 5/6 embryos
# Experimental: Sperm were collected from the cauda epididymis of 12-week-old mature male mice. The mouse sperm were cultured in modified HTF medium (Glu medium, pH 7.8, supplemented with R848 (3 nM)) (60 minutes, 37° C.). Sperm cultured in the same manner as in Experiment 7 were subjected to artificial insemination, and the resulting blastocyst embryos were collected. As a result, 83.3% (5/6) of the embryos were female embryos.
# bovine sperm [3] = test: Acrosome retention rate of bovine sperm after culture and swim-up; format: cell-based; settings: freeze-thawed bovine sperm, Glu medium pH 7.7, R848 3 nM, 30 minutes room temperature, swim-up from 1% PVP 15 minutes; FIG. 7
# Experimental: Freeze-thawed bovine sperm, thawed and washed in modified HTF medium, were cultured in modified HTF medium (Glu medium, pH 7.7, supplemented with R848 (3 nM)) (30 minutes, room temperature). Centrifugation was carried out, and then the supernatant was discarded. Subsequently, the sperm were resuspended in modified HTF medium supplemented with 1% PVP and R848 (3 nM), and then placed under PVP-free modified HTF medium to form a lower layer. Fifteen minutes later, 1.5 mL of the upper layer and 0.5 mL of the lower layer were collected. Each layer was subjected to acrosome staining, and the acrosome retention rate was determined.
# bovine sperm [4] = test: X-sperm/Y-sperm ratio of bovine lower-layer sperm by fluorescence in situ hybridization; format: cell-based; settings: freeze-thawed bovine sperm, Glu medium pH 7.7, R848 3 nM, swim-up, FISH, FIG. 8
# bovine sperm [5] = test: Bovine in vitro fertilization with upper-layer sperm, sex identification of blastocyst embryos by real-time PCR; format: cell-based; settings: modified HTF medium pH 7.4, R848 3 nM, 30 minutes room temperature, FIG. 9
# Experimental: Freeze-thawed bovine sperm, thawed and washed in modified HTF medium, were cultured in modified HTF medium (pH 7.4, supplemented with R848 (3 nM)) (30 minutes, room temperature). Centrifugation was carried out, and then the supernatant was discarded. Subsequently, the sperm were resuspended in modified HTF medium supplemented with 1% PVP and R848 (3 nM), and then placed under PVP-free modified HTF medium to form a lower layer. Fifteen minutes later, 1.5 mL of the upper layer was collected, washed, and then subjected to in vitro fertilization. Thereafter, the resulting blastocyst embryos were subjected to sex identification by real-time PCR.
# [6] = blastocyst embryos after five days, Glu medium pH 7.8, 22 individuals
compound,measurement,setting,value
"CCOCc1nc2c(N)nc3ccccc3c2n1CC(C)(C)O [R848, resiquimod]",Female ratio,pig sperm,64%
same,Female (number of individuals),pig sperm; 36 individuals,23
same,Male (number of individuals),pig sperm; 36 individuals,13
same,Female (number of embryos),mouse sperm [1]; [6],17
same,Male (number of embryos),mouse sperm [1]; [6],5
same,Female ratio,"mouse sperm [1]; blastocyst embryos, Glu medium pH 7.8",77%
same,female embryos among blastocyst embryos,mouse sperm [2],83.3%
same,acrosome retention rate of the sperm in the upper layer,bovine sperm [3],70%
same,Y-sperm among the sperm in the lower layer,bovine sperm [4],84%
same,XX embryos (female embryos) among blastocyst embryos,bovine sperm [5],91%
